pIC50: −log10 of the molar value.
What was measured:
[1] = test system: NCI-H929 MM Cells; assay: In vitro cytotoxicity assay (CCK-8); type: cell-based, human; details: NCI-H929 cell line
Method: Next, we evaluated the efficacy of liposomal DM1-Prodrug formulations against MM cells in vitro. For this, NCI-H929 cells were incubated with NP[Prodrug], TNP[Prodrug], free DM1-Prodrug or free drug for 24 h, 48 h and 72 h, and cell viability was determined using cell counting kit-8 (CCK-8) reagent. […] The differences in the IC50 values between free drug and the nanoparticles is possibly attributed to the release kinetics of active DM1 from nanoparticles.
Cell Culture. NCI-H929 cells were purchased from ATCC (Rockville, MD). Cells were cultured in RPMI 1640 media (Corning, NY). The cell line was supplemented with 20% fetal bovine serum (FBS), 2 mM L-Glutamine (Gibco, CA), 100U/mL penicillin (Gibco, CA), 100 μg/mL streptomycin (Gibco) and 55 μM 2-mercaptoethanol.
Cytotoxicity Assays. 15×10^3 cells/well were plated 24 h prior to each experiment in a 96-well plate. The following day, cells were treated with respective cytotoxic agents at varying concentrations. Cytotoxicity was assessed at 24 h, 48 h and 72 h using Cell Counting Kit-8 Reagent via reading absorbance at 450 nm. Viability was normalized to wells containing untreated cells.

[2] = Maximum tolerated dose (MTD) study in healthy mice; type: in vivo; details: healthy NOD-SCID mice
Method: When mice were injected with free DM1 at a dose over 0.5 mg/kg twice on days 0 and 3, we observed that all animals lost over 15% of their body weight and were morbid before the end of the week (FIG. 5). […] We concluded that liposomal prodrug formulations made treatment with DM1 possible in comparison to free DM1, where its intense systemic toxicity made it a non-viable treatment option. With this approach of liposomal prodrug formulation, even the non-targeted formulations already achieved an improved therapeutic index for DM1.
Maximum Tolerated Dose (MTD) Study. […] Free drug (DM1) was administered according to the recommendations of the manufacturer. Briefly, Free drug treatments were prepared by dissolving in 10% DMSO and 90% saline containing (20% Hydroxypropyl-β-cyclodextrin as excipient) and then administered intravenously into mice.

[3] = test system: NCI-H929 cells; assay: Apoptosis assay (Annexin-V / PI staining); type: cell-based, human; details: 20 nM equivalence of DM1, 24 h, Annexin-V and PI
Method: NCI-H929 cells were incubated with 20 nM equivalence of DM1 concentration either in the form of one of the liposomal prodrug formulations, or the free drug for 24 h.
Apoptosis Assay. NCI-H929 cells were cultured in the presence of 20 nM of DM1 equivalent concentrations of NP[Prodrug], TNP[Prodrug], and free drug for 24 h. Cells were washed and stained using the Dead Cell Apoptosis Kit by following and optimizing the manufacturer's protocol. Briefly, cells were washed with cold PBS, resuspended in 1X binding buffer, followed by Annexin-V and PI staining for 30 min at room temperature. Staining was performed by adding 7 μL of Alexa Fluor® 488 Annexin-V and 8 μL of 100 μg/mL PI working solution to each 100 μL of cell suspensions. Cells in treatment groups and untreated control were stained with Annexin-V and PI. Fluorescent microscopy images were acquired by using an EVOS® FL Auto Imaging System.

For COc1cc2cc(c1Cl)N(C)C(=O)C[C@H](OC(=O)[C@H](C)N(C)C(=O)CCS)[C@]1(C)O[C@H]1[C@H](C)[C@@H]1C[C@@](O)(NC(=O)O1)[C@H](OC)/C=C/C=C(\C)C2 [free DM1, Mertansine], the pIC50 ([1]; 24 hours) was 7.92, the pIC50 ([1]; 72 hours) was 8.05 and the body weight loss ([2]; dose over 0.5 mg/kg twice on days 0 and 3) was “over 15%”. The “toxicity / side-effects in MTD study” value ([2]; injections on days 0 and 3, equivalent DM1 doses (nanoparticles up to 4 mg/kg)) was “morbid” and the “induction of apoptosis of MM cells” value [3] was “induce apoptosis”.
